Experimental findings from patent US9828375B2, “4-position substituted pyrazolopyrimidine derivative, and use thereof in drug preparation” (Guangxi Wuzhou Pharmaceuticals (Group) Co., Ltd., priority 2012, dated 2017) are described below.

Each structure is given as a SMILES string. pIC50: −log10 of the molar value. Read-outs that look alike come from different tables or passages of the source.

In data set [1] the test system is human leukemia cell line MV4-11. As to the kind of experiment: In vitro tumor cell proliferation inhibition (MTT): MV4-11. It counts as cell-based. From the text:
(§1) The purpose of the experiment was to test the inhibition activity of the compounds of the invention for in vitro human tumor cell proliferation by the methyl thiazolyl tetrazolium (MTT) colorimetry.
(§2) Main reagents: RPMI-1640, fetal bovine serum, pancreatin, etc. were purchased from Gibco BRL Company (Invitrogen Corporation, USA) and IMDM medium that was purchased from American Type Culture Collection (ATCC). Methyl thiazolyl tetrazolium (MTT) and dimethyl sulfoxide (DMSO) were products from Sigma Company (USA). Pyrazolopyrimidine derivatives were composed by the inventor. During in vitro experiment, 100% DMSO was prepared into 10 mM storage solution, the solution was stored in a refrigerator at −20° C. for future use, and was diluted to the required concentration with complete culture solution before use.
(§3) Cell line and culture: Human leukemia cell line MV4-11, Jurkat, K562, human thyrophyma cell line TT, human gastric carcinoma cell line MKN-45, human malignant melanoma cell lines A375 and A875, human pancreatic carcinoma cell line panc-1, human cervical carcinoma cell line HELA, human colorectal carcinoma cell line HCT116, etc. were purchased from American type culture collection and were preserved by this laboratory. All leukemia cell lines (except MV4-11), gastric carcinoma cell lines and thyrophyma cell lines were cultured in RPMI-1640 complete medium containing 10% fetal bovine serum, 100 U/mL penicillin and 100 μg/mL streptomycin at 37° C. in 5% CO2. The remaining cell lines were cultured in DMEM complete medium containing 10% fetal bovine serum (containing 20% MV4-11 cell), 100 U/mL penicillin and 100 µg/mL streptomycin at 37° C. in 5% CO2.
(§4) Cell suspension with cell concentration of 1-2×10^4/mL was adjusted with the complete cell medium and inoculated in a 96-well plate, with each well filled with 200 μl cell suspension that was cultured overnight. On the next day, supernatant was sucked and abandoned (supernatant was sucked upon centrifugation of suspension cells), and then cells were processed with test compounds at gradient concentrations respectively. Meanwhile, a negative control group free from drug and a solvent control group with equal volume were set, and the DMSO concentration was 0.1%. Each dose group was provided with three wells and cultured at 37° C. in 5% CO2. After 72 hours, 20 μl 5 mg/mL MTT reagent was added to each well, and cultured for another 2 to 4 hours, the supernatant was abandoned; 150 μL DMSO was added to each well again, vibrated and mixed evenly for 15 minutes; the absorbance (A) values (proportional to living cell amount) were determined with a microplate reader (λ=570 nm) and averaged. […] Experiment was repeated for 3 times at least. Experimental data were expressed with means, data statistics were tested by t, and P<0.05 means that difference has a statistical significance. The cell proliferation inhibition effects of all compounds as follows are expressed by IC50 or inhibition rate.

The subject of data set [2] is human gastric carcinoma cell line MKN-45. Nature of the data set: In vitro tumor cell proliferation inhibition (MTT): MKN-45. It is filed as cell-based.
Source text: as §1, §2, §3, §4

For data set [3], the system named is human malignant melanoma cell line A375. Nature of the data set: In vitro tumor cell proliferation inhibition (MTT): A375. It is filed as cell-based.
Source text: as §1, §2, §3, §4

Data set [4] concerns human malignant melanoma cell line A875. As to the kind of experiment: In vitro tumor cell proliferation inhibition (MTT): A875. It counts as cell-based.
Source text: as §1, §2, §3, §4

The test system of data set [5] is human pancreatic carcinoma cell line panc-1. Nature of the data set: In vitro tumor cell proliferation inhibition (MTT): panc-1. It counts as cell-based.
Source text: as §1, §2, §3, §4

The subject of data set [6] is human leukemia cell line Jurkat. As to the kind of experiment: In vitro tumor cell proliferation inhibition (MTT): Jurkat. It counts as cell-based. As to conditions: 72 hours.
Source text: as §1, §2, §3, §4

The subject of data set [7] is human colorectal carcinoma cell line HCT116. Nature of the data set: In vitro tumor cell proliferation inhibition (MTT): HCT116. It counts as cell-based.
Source text: as §1, §2, §3, §4

Data set [8] concerns human leukemia cell line K562. Nature of the data set: In vitro tumor cell proliferation inhibition (MTT): K562. It is filed as cell-based.
Source text: as §1, §2, §3, §4

For data set [9], the system named is human thyrophyma cell line TT. As to the kind of experiment: In vitro tumor cell proliferation inhibition (MTT): TT. It counts as cell-based.
Source text: as §1, §2, §3, §4

For data set [10], the system named is human cervical carcinoma cell line HELA. Nature of the data set: In vitro tumor cell proliferation inhibition (MTT): HELA. It counts as cell-based. To be noted: 72 hours.
Source text: as §1, §2, §3, §4

The test system of data set [11] is human acute myeloid leukemia cell line MV4-11. Nature of the data set: In vivo anti-leukemia tumor experiment, NOD-SCID mice-subcutaneous MV4-11 model, tumors more than 2000 mm^3. The text has this:
The cell line used was human acute myeloid leukemia cell line MV4-11, with anti-leukemia drug Quizartinib (AC220) as a positive control.

Where [12] appears, read: Homo sapiens, HCT-116, 72 hours.

As to `Cn1nc(C(C)(C)C)cc1NC(=O)Nc1ccc(Oc2ncnc3[nH]ncc23)c(Cl)c1` [4a-32, 1-(4-((1H-pyrazolopyrimidine-4-yl)oxy)-3-chlorphenyl)-3-(3-tert-butyl-1-methylpyrazol-5-yl)urea], the pIC50 in data set [1] (Homo sapiens, MV4-11, 72 h) was 9.00; in [2] (Homo sapiens, MKN-45, 72 hours), 5.00 to 5.52; in data set [3] (Homo sapiens, A-375, 72 hours) it was 5.00 to 5.52; in data set [4] (Homo sapiens, A875, 72 hours) it was 5.00 to 5.52; in [5] (Homo sapiens, PANC-1, 72 hours), 5.00 to 5.52; in data set [6] (Homo sapiens, Jurkat) it was 5.00 to 5.52. Besides, in data set [7] (setting [12]), the pIC50 is > 4.30.

For `O=C(Nc1cccc(Oc2ncnc3[nH]ncc23)c1)Nc1cccc(C(F)(F)F)c1` [4a-41], the pIC50 in data set [1] (72 hours) was 5.11; in data set [2] (72 hours), > 4.30; in [3] (72 hours) it was > 4.30; in data set [4] (72 hours) it was > 4.30; in [5] (72 hours), > 4.30; in data set [6] it was > 4.30. The pIC50 in data set [8] (72 hours) was > 4.30; in [7] (72 hours, read-out: Proliferation inhibition activity (IC50) HCT 116), > 4.30; in data set [9] (72 hours), > 4.30; in [10] it was > 4.30.

As to `O=C(Nc1ccc(C(F)(F)F)cc1)Nc1cccc(Oc2ncnc3[nH]ncc23)c1` [4a-43], the pIC50 was > 5.30 in [1] (Homo sapiens, MV4-11, 72 h); > 4.30 in [2] (Homo sapiens, MKN-45, 72 hours); > 4.30 in data set [3] (Homo sapiens, A-375, 72 hours); > 4.30 in [4] (Homo sapiens, A875, 72 hours); > 4.30 in data set [5] (Homo sapiens, PANC-1, 72 hours); > 4.30 in data set [6] (Homo sapiens, Jurkat). Besides, the pIC50 is > 4.30 in [8] (Homo sapiens, K562, 72 hours); > 4.30 in [7] (setting [12]); 5.34 in [9] (Homo sapiens, 72 h); > 4.30 in [10] (Homo sapiens, HeLa).

For `CC(C)(C)c1cc(NC(=O)Nc2ccc(Oc3ncnc4[nH]ncc34)c(Cl)c2)no1` [4a-46, 1-(4-((1H-pyrazolopyrimidine-4-yl)oxy)-3-chlorphenyl)-3-(5-tert-butylisoxazol-3-yl)urea], the pIC50 in [1] (Homo sapiens, MV4-11, 72 h) is 8.52; in [2] (Homo sapiens, MKN-45, 72 hours), > 4.30; in data set [3] (Homo sapiens, A-375, 72 hours), > 5.00; in data set [4] (Homo sapiens, A875, 72 hours), > 5.00; in data set [5] (Homo sapiens, PANC-1, 72 hours) it was 5.52 to 6.00; in data set [6] (Homo sapiens, Jurkat), 5.52 to 6.00. The pIC50 in data set [8] (Homo sapiens, K562, 72 hours) was 5.00 to 5.52; in [7] (setting [12]) it was > 5.00; in data set [9] (Homo sapiens, 72 h), 5.52 to 6.00; in [10] (Homo sapiens, HeLa), > 4.30.

With `O=C(Nc1ccc(Cl)c(C(F)(F)F)c1)Nc1ccc(Oc2ncnc3[nH]ncc23)cc1Cl` [4a-55], the pIC50 in data set [1] (Homo sapiens, MV4-11, 72 h) was 7.27; in data set [5] (Homo sapiens, PANC-1, 72 hours), > 4.30; in data set [6] (Homo sapiens, Jurkat), > 4.30; in data set [8] (Homo sapiens, K562, 72 hours), > 4.30; in data set [7] (setting [12]), > 4.30.

For `CC(C)(C)c1cc(NC(=O)Nc2ccc(Oc3ncnc4[nH]ncc34)cc2)n(C(=O)O)n1` [4a-58], the pIC50 is 10.84 in data set [1] (Homo sapiens, MV4-11, 72 h) and > 4.30 in data set [10] (Homo sapiens, HeLa). Also, in data set [11] (NOD-SCID mice, 3 and 10 mg/kg q.d. oral), the “weight loss, rash, diarrhea and other adverse reactions during administration” value is listed as “not found”. In data set [11] (daily dose of 3 mg/kg or above, oral, MV4-11 tumors more than 2000 mm^3 at start), the “in vivo tumor growth inhibition effect” value is “completely inhibit tumor growth”.

Take `CC(C)(C)c1cc(NC(=O)Nc2ccc(Oc3ncnc4[nH]ncc34)c(F)c2)n(C(=O)O)n1` [4a-59]: the pIC50 was 11.01 in [1] (Homo sapiens, MV4-11, 72 h) and > 4.30 in [10] (Homo sapiens, HeLa).

In the case of `CN(C)CCCn1ncc2c(Oc3ccc(NC(=O)Nc4cc(C(C)(C)C)on4)cc3)ncnc21` [5a-6], the pIC50 in data set [1] (Homo sapiens, MV4-11, 72 h) was 7.55; in [2] (Homo sapiens, MKN-45, 72 hours) it was > 4.30; in [6] (Homo sapiens, Jurkat), > 4.30; in [9] (Homo sapiens, 72 h), 5.38; in data set [10] (Homo sapiens, HeLa), > 4.30.

`CC(C)n1ncc2c(Oc3ccc(NC(=O)Nc4cc(C(C)(C)C)[nH]n4)cc3)ncnc21` [5a-7, 1-(5-tert-butyl-1H-pyrazol-3-yl)-3-(4-(1-isopropyl-(1H-pyrazolopyrimidine-4-yl)oxy)phenyl)urea]: the pIC50 was > 4.30 in data set [2] (Homo sapiens, MKN-45, 72 hours); > 4.30 in data set [3] (Homo sapiens, A-375, 72 hours); > 4.30 in data set [4] (Homo sapiens, A875, 72 hours); > 4.30 in [5] (Homo sapiens, PANC-1, 72 hours); > 4.30 in [6] (Homo sapiens, Jurkat); > 4.30 in data set [9] (Homo sapiens, 72 h).
